Experimental data as given in ChEMBL document CHEMBL1806432, “Cytotoxic diterpenoid quinonemethides from the roots of Pygmacopremna herbacea” (Bioorg Med Chem Lett, 2011).
≈ marks a conversion by molar mass, not a printed value.

What was measured:
Assay type in all cases: functional, cell-based
HepG2 = test: Cytotoxicity against human HepG2 cells after 48 hrs by MTT assay; conditions: HepG2, 48 h
HeLa = test: Cytotoxicity against human HeLa cells after 48 hrs by MTT assay
PC-3 = test: Cytotoxicity against human PC3 cells after 48 hrs by MTT assay; conditions: PC-3, 48 h
MCF7 = test: Cytotoxicity against human MCF7 cells after 48 hrs by MTT assay; conditions: MCF7, 48 h
A549 = test: Cytotoxicity against human A549 cells after 48 hrs by MTT assay; conditions: A549, 48 h

| Compound | IC50 (HepG2) [µg/mL] | IC50 (HeLa) [µg/mL] | IC50 (PC-3) [µg/mL] | IC50 (MCF7) [µg/mL] | IC50 (A549) [µg/mL] |
| --- | --- | --- | --- | --- | --- |
| CC(C)C1=CC2=CC=C3C(C)(C)CC(=O)C[C@@]3(C)C2=C(O)C1=O | 38.2 (≈ 122 µM) | 15.6 (≈ 49.9 µM) | 1.7 (≈ 5.44 µM) | 27.6 (≈ 88.3 µM) | 17.6 (≈ 56.3 µM) |
| CC(C)C1=CC2=CC=C3C(C)(C)CC(=O)O[C@@]3(C)CC2=C(O)C1=O [BHARANGIN] | 14.3 (≈ 43.5 µM) | 14.1 (≈ 42.9 µM) | 2.95 (≈ 8.98 µM) | 0.006 (≈ 0.0183 µM) | 2.03 (≈ 6.18 µM) |
| COc1cccc2c1C(=O)c1c(O)c3c(c(O)c1C2=O)C[C@@](O)(C(=O)CO)C[C@@H]3O[C@H]1C[C@H](N)[C@H](O)[C@H](C)O1 [DOXORUBICIN] | 1.6 (≈ 2.94 µM) | 0.24 (≈ 0.442 µM) | 2.3 (≈ 4.23 µM) | – | 0.51 (≈ 0.938 µM) |
| CC(C)C1=CC2=CC=C3C(C)(C)[C@@H](O)C(=O)C[C@]3(C)C2=C(O)C1=O [ISOBHARANGIN] | 6.29 (≈ 19.2 µM) | 103 (≈ 315 µM) | 62.2 (≈ 189 µM) | 28.2 (≈ 85.9 µM) | 24.1 (≈ 73.4 µM) |
| CC(C)C1=CC2=CC=C3C(C)(C)COC(=O)[C@@]3(C)CC2=C(O)C1=O [NEOBHARANGIN] | 13 (≈ 39.6 µM) | 104 (≈ 318 µM) | 48.6 (≈ 148 µM) | 0.39 (≈ 1.19 µM) | 2.61 (≈ 7.95 µM) |
